Measurements published in patent US20230094545A1, “S1P RECEPTOR MODULATORS” (AKAAL PHARMA PTY LTD, priority 2020, published 2023).
Like-named read-outs stand apart in the source and are kept apart here.

Columns and labels:
[1] = test system: paclitaxel induced neuropathic pain; test: Paclitaxel induced neuropathic pain; format: in vivo, Sprague Dawley Rats
Protocol: Forty-eight male Sprague Dawley Rats were assigned to different treatment and control groups containing 8 animals per group. All animals, except the Naive control were injected with Paclitaxel (2 mg/kg) intraperitoneally on four alternate days (D0, D2, D4 and D6). For prophylactic intervention, the compound of Formula I was dosed orally at dose of 0.3, 1 and 3 mg/kg/day when the treatment was initiated along with paclitaxel treatment and the dosage was continued until day 15 post first paclitaxel injection. For therapeutic intervention, the compound of Formula I was dosed orally at dose of 3 mg/kg/day when the treatment was initiated after establishment of neuropathic pain i.e. on day 16 post first paclitaxel injection and was continued for the next 7 days.
For behavioural testing each rat was allowed to acclimatize individually to a transparent enclosure on elevated wire mesh for at least 15 min. Behavioural testing was performed using an Electronic von Frey Aesthesiometer (IITC Life Science) to evaluate paw withdrawal threshold to mechanical stimulus.
Based on these findings it can be concluded that treatment with the compound of formula (I) is effective both as a prophylactic and therapeutic and has an anti-allodynic effect in paclitaxel induced neuropathic pain.

mould = test: Anti-mould (antifungal) activity on wheat flour bread; conditions: 1% ww and 3% ww water solution on bread, day 14, room temperature
Protocol: The compound of formula I solution as 0% ww, 1% ww and 3% ww as I mL water solution was added to a glass jar (5 mL) containing the fresh wheat flour bread (1 gm). The content was mixed well in order to wet the bread with solution. The content was kept in open glass cylinder for 14 days at room temperature and light (normal conditions) and the photos of Day 1 and Day 14 were taken (FIGS. 5A and B respectively). […] The mould is common in many skin indications and other human, animal and plant diseases. For example, Rhizopus stolonifera.

[2] = test system: RAW 264.7 cell line (monocyte cells); test: Heat-killed P. acne challenged RAW 264.7 cells, cytokines by ELISA; format: cell-based; conditions: Mus musculus, RAW264.7, compared to untreated
Protocol: RAW 264.7 cell line (monocyte cells) challenged with the heat-killed Propionibacterium acne (P. acne) and incubated for 1 hour and were divided into four groups as G1=not challenged with P. acne, G2=challenged with P. acne but untreated, G3=challenged with P. acne and treated with 1 μM of compound of formula I, G3=challenged with P. acne and treated with 3 μM of compound of formula I. The ELISA method was used to analyze the effect of compound of formula I on the secretion of proinflammatory cytokines the TNFα and IL6. Compound of formula I inhibits the cytokines in P. acne challenged monocyte cells. The results are shown in below FIG. 6. The compound of formula I inhibit the secretion of TNFα@1 μM=˜42% and @3 μM=˜69% and IL6@1 μM=˜27% and @3 μM=˜42% compared to untreated in P. acne challenged cell line.

Incision mediated pain = test: Deep incision wound mediated pain, topical treatment; format: in vivo, Sprague Dawley Rats
Source text: The total 24 female Sprague Dawley Rats were assigned to two test and two control groups having 6 animals per group. Animals from G1 and G2 received CFA on Day 1 by intraplanter route followed application of test item (0 and 3% respectively), onto injection site from Day 1 to Day 7. Group G3 and G4 animals received deep incision through the skin and fascia of the plantar foot followed by application of test item (0 and 3% respectively), onto the incision site from Day 1 to Day 7. Clinical signs, body weight and pain assessment parameters like Von Frey estimation and FOB was evaluated and the pain reduction results at Day 7 are summarized in Table 7.

[3] = test system: formalin induced nociception; test: Formalin induced nociception (pain); format: in vivo, Sprague Dawley rats
Protocol: Forty male Sprague Dawley rats were assigned to different treatment and control groups containing 8 animals/group. The groups were treated with different doses of a compound of Formula I and received either 0.03, 0.3 and 3.0 mg/kg dose, administered orally 30 min before formalin injection. Tramadol hydrochloride (30 mg/kg) was administered orally 30 min before formalin injection as a positive control. Deionized water was used as a negative control (Vehicle) and administered orally 30 min before formalin injection. Individual rats were then gently restrained and formalin (5% in v/v in saline, 50 μl, s.c.) was injected into the plantar surface of the left hind paw using a 27G needle. Post-formalin nociceptive behaviour, paw flinching was recorded for 60 min, in bins of 5 min. The intra plantar injection of formalin (50 μl, 5% v/v) induced marked flinching of the ipsilateral rat paw with typical biphasic response in the vehicle/distilled water treated animals. […] Inhibition of nociceptive behaviour at 0.3 mg/kg (33%, p<0.05) and 3.0 mg/kg (45%, p<0.01) were statistically significant compared to vehicle control.

[4] = test system: kainic acid induced seizures; test: Kainic acid model of epilepsy; format: in vivo, Sprague Dawley rats
Protocol: In an animal model of epilepsy, Sprague Dawley rats (n=6) were treated with the compound of Formula I or vehicle, dosed 1 hour prior to kainic acid administration (10 mg/kg, IP). […] There was significant reduction in seizures (70%, p<0.005) in the compound of formula (I) treated group. The changes observed in the hippocampal region of control animals included, minimal to mild neuronal cell death which included vaculations in neuronal cells particularly at C3 and C1 regions proving the compound of Formula I is neuroprotective.

[5] = read-out: inhibition of secretion of IL6
[6] = read-out: inhibition of secretion of TNFα

## CCCOc1ccc(-c2nc(-c3ccc4oc(C(N)(CO)CO)cc4c3)no2)cc1Cl [compound of formula (I)]
[1]; 3 mg/kg/day oral after establishment of pain, maximum effect after 5th daily dose
  neuropathic pain, therapeutic treatment: reversal of neuropathic pain in time dependent manner
[1]; 0.3, 1 and 3 mg/kg/day oral, maximum effect at 3 mg/kg/day
  development of neuropathic pain, prophylactic treatment: inhibited the development of paclitaxel induced neuropathic pain dose dependently
[1]; preventive model, 1 and 3 mg/kg dose levels, p<0.001
  reduction of day 16 score: > 60%
[1]; until 7 days post last drug treatment (day 22)
  anti-allodynic effect after withdrawal of treatment on day 15: did not cause any reversal of the drug's anti-allodynic effect
mould
  mould growth: preventing mould growth at day 14
[2]; [5]
  inhibition at 1 µM: ~27%
  inhibition at 3 µM: ~42%
[2]; [6]
  inhibition at 1 µM: ~42%
  inhibition at 3 µM: ~69%
Incision mediated pain; 3% (G4), Placebo (G3) 0.33
  Pain reduction results at Day 7, Incision mediated pain: 0.11
Incision mediated pain; 3% topical Day 1 to Day 7, day 7
  pain relief: 67%
[3]; 0.3 mg/kg oral 30 min before formalin, p<0.05
  inhibition of nociceptive behaviour: 33%
[3]; 3.0 mg/kg oral 30 min before formalin, p<0.01
  inhibition of nociceptive behaviour: 45%
[3]; 0.03, 0.3 and 3 mg/kg oral 30 min before formalin
  nociceptive behaviour: inhibited nociceptive behaviour
[4]; dosed 1 hour prior to kainic acid, p<0.005
  reduction in seizures: 70%
[4]; rat, in vivo
  neuroprotection (hippocampal histology): neuroprotective
